From patent publication US20140323511A1, “CHEMOTHERAPEUTIC FOR INDUCING AN MSH2 DEPENDENT APOPTOTIC PATHWAY” (Wake Forest University Health Sciences, priority 2013, published 2014)

How the values were obtained:
[1] = test system: HEC59 cells (msh2 deficient); assay: Cell viability assay (CellTiter 96 Aqueous One Solution), MSH2-deficient endometrial cells; assay type: cell-based; conditions: Homo sapiens; HEC59, drug 24 hours; graphs not reaching 50% mortality were extrapolated; NA = data did not reach below 50%, no extrapolation possible; read-out: 50IC MSH2 deficient
Procedure: (§1) HEC59 cells (msh2 deficient) and the paired cell line HEC59 chr. that restores the MSH2-deficiency via chromosome transfer have been extensively characterized (Umar et al., 1997). Cells were grown in standard growth media (DMEM-F12+10% FBS). Cells were plated in microtiter plates at an appropriate concentration in 100 μl media and incubated overnight. Media was replaced with media containing drug and allowed to incubate for 24 hours at indicated concentrations. Untreated cells received fresh media with vehicle only. One solution reagent (CellTiter 96)(r) Aqueous One Solution) was added to existing media (20 μl/well) and allowed to incubate 3-4 hrs. A plate reader was used to record the absorbance at 490 nm. Assays were performed at least in triplicates. Cell viability at each concentration was analyzed for IC50 values using GraphPad Prism 4™. Graphs represent mean values and standard deviations.
(§2) We next tested these new rescinnamine analogs in a well-defined cellular system with an endometrial cell line deficient (HEC59) and proficient (via chromosome transfer, HEC59+chr.2) for MSH2. […] No significant difference was detected when determining the IC50 values.

[2] = test system: HEC59+chr.2 (MSH2 proficient via chromosome transfer); assay: Cell viability assay (CellTiter 96 Aqueous One Solution), MSH2-proficient endometrial cells; assay type: cell-based; conditions: Homo sapiens; HEC59+chr.2, drug 24 hours; graphs not reaching 50% mortality were extrapolated; NA = data did not reach below 50%, no extrapolation possible; read-out: 50IC MSH2 proficient
Procedure: as §1, §2

HEC59 and HEC59+chr.2 = assay: Cell viability compared between the paired MSH2-deficient and MSH2-proficient endometrial cell lines; assay type: cell-based, human; conditions: for cell killing: endometrial cell line deficient (HEC59) and proficient (HEC59+chr.2) for MSH2, data not shown; for change of IC50 when MSH2 is present: HEC59+chr.2 vs HEC59; for change in sensitivity to MSH2: comparison of isomers, MSH2 proficient vs deficient IC50; for difference between MSH2-proficiency and deficiency (MSH2-dependence of cell killing): HEC59 vs HEC59+chr.2
Procedure: as §1, §2

ovarian cancer cells = assay: Overcoming resistance to cisplatin in ovarian cancer cells; assay type: cell-based; conditions: data not shown
SW416 or HEC59 cells = assay: Xenograft model; assay type: in vivo, mice
Procedure: SW416 or HEC59 cells in PBS mixed with Matrigel (1:1; BD Biosciences) were subcutaneously injected into the flank of nude donor mice. Tumors were grown for up to 3 weeks. Mice were euthanized, tumors excised, minced into 3 mm pieces, and surgically implanted into the right flank of acceptor mice (10 per group). Isoflurane anesthesia was provided during tumor inoculation. Injection of compounds was started 3 days following tumor implantation to allow recovery from surgery. Compounds were given intraperitoneally, in a volume of 0.5 ml/mouse with a ¼ inch, 23-gauge needle in a 6 ml plastic syringe. Mice were monitored based on survival and body weight. Tumor size, measured by caliper, and body weight were monitored […] for 57 days, and the prolongation of median survival time after ip treatment determined. Any animals showing signs of distress, unnatural movements, severe loss of appetite, severe signs of hypotension, tumor size of […], or weight loss exceeding 10% before the end of the study were euthanized. Tumors were measured twice a week for each group. Tumor volume is calculated as length(mm)×width (mm)^2. Initial measurements were performed when the tumor reached 150-200 mg. Tumor weight (in mg) is calculated as tumor weight (mg)[…](length(mm) of tumor×width (mm) of tumor^2)/2.

MSH2 = conditions: previously shown (Vasilyeva 2009, 2010); cited from earlier work

Structure (SMILES)	IC50 [1] [µM]	IC50 [2] [µM]	cell killing (HEC59 and HEC59+chr.2)	also measured
C=CC(=O)O[C@@H]1C[C@@H]2CN3CCc4c([nH]c5cc(OC)ccc45)[C@H]3C[C@@H]2[C@H](C(=O)OC)[C@H]1OC [SA-I-03, Acryloyl Reserpate]	20.7	20.4	induced cell killing in the micromolar range	melting point: > 260 °C
COC(=O)c1cc(/C=C/C(=O)O[C@@H]2C[C@@H]3CN4CCc5c([nH]c6cc(OC)ccc56)[C@H]4C[C@@H]3[C@H](C(=O)OC)[C@H]2OC)ccc1OC [SA-I-012]	50.7	48.9		
COC(=O)[C@H]1[C@H]2C[C@@H]3c4[nH]c5cc(OC)ccc5c4CCN3C[C@H]2C[C@@H](OC(=O)/C=C/c2ccc(C(=O)O)c(OC)c2)[C@@H]1OC [SA-I-013]	163	1220		change of IC50 when MSH2 is present (HEC59 and HEC59+chr.2): reduction in IC50 when MSH2 is present; change in sensitivity to MSH2 (HEC59 and HEC59+chr.2): ~8 fold
COC(=O)[C@H]1[C@H]2C[C@@H]3c4[nH]c5cc(OC)ccc5c4CCN3C[C@H]2C[C@@H](OC(=O)/C=C/c2ccc(OC)c(C(=O)O)c2)[C@@H]1OC [SA-I-015]	89.3	84.2		
COC(=O)[C@H]1[C@H]2C[C@@H]3c4[nH]c5cc(OC)ccc5c4CCN3C[C@H]2C[C@@H](OC(=O)/C=C/c2ccc(O)c(OC)c2)[C@@H]1OC [SA-I-016]				difference between MSH2-proficiency and deficiency (MSH2-dependence of cell killing) (HEC59 and HEC59+chr.2): small difference between MSH2-proficiency and deficiency
COC(=O)[C@H]1[C@H]2C[C@@H]3c4[nH]c5cc(OC)ccc5c4CCN3C[C@H]2C[C@@H](OC(=O)/C=C/c2ccc(OC)c(OC(C)=O)c2)[C@@H]1OC [SA-I-019]	39.3		induced cell killing in the micromolar range	
COC(=O)[C@H]1[C@H]2C[C@@H]3c4[nH]c5cc(OC)ccc5c4CCN3C[C@H]2C[C@@H](OC(=O)/C=C/c2ccc(OC)c(O)c2)[C@@H]1OC [SA-I-020]	22.3	21.3	induced cell killing in the micromolar range	
COC(=O)[C@H]1[C@H]2C[C@@H]3c4[nH]c5cc(OC)ccc5c4CCN3C[C@H]2C[C@@H](OC(=O)/C=C/c2cc(OC)c(O)c(OC)c2)[C@@H]1OC [SA-I-027]	47.7	54.5	induced cell killing in the micromolar range	
COC(=O)[C@H]1[C@H]2C[C@@H]3c4[nH]c5cc(OC)ccc5c4CCN3C[C@H]2C[C@@H](OC(=O)/C=C/c2ccc(OC)c(N)c2)[C@@H]1OC [SA-I-029]	77.2	113		change of IC50 when MSH2 is present (HEC59 and HEC59+chr.2): reduction in IC50 when MSH2 is present; change in sensitivity to MSH2 (HEC59 and HEC59+chr.2): ~2 fold
COC(=O)[C@H]1[C@H]2C[C@@H]3c4[nH]c5cc(OC)ccc5c4CCN3C[C@H]2C[C@@H](OC(=O)/C=C/c2ccc(N)c(OC)c2)[C@@H]1OC [SA-I-039]	85.7	68.4	induced cell killing in the micromolar range	difference between MSH2-proficiency and deficiency (MSH2-dependence of cell killing) (HEC59 and HEC59+chr.2): small difference between MSH2-proficiency and deficiency; change in sensitivity to MSH2 (HEC59 and HEC59+chr.2): ~2 fold
CCC(=O)O[C@@H]1C[C@@H]2CN3CCc4c([nH]c5cc(OC)ccc45)[C@H]3C[C@@H]2[C@H](C(=O)OC)[C@H]1OC [SA-I-058, Propionoyl Reserpate]				melting point: 258 °C
COC(=O)[C@H]1[C@H]2C[C@@H]3c4[nH]c5cc(OC)ccc5c4CCN3C[C@H]2C[C@@H](OC(=O)/C=C/c2cc(OC)c(OC)c(OC)c2)[C@@H]1OC [rescinnamine]				overcoming resistance to cisplatin (ovarian cancer cells): capable of overcoming resistance to cisplatin in ovarian cancer cells; hypotensive activity limiting the dose (SW416 or HEC59 cells): hypotensive activity of the drug prevented administration of statistically effective doses; tumor inhibition (SW416 or HEC59 cells; data not shown): significant trend toward tumor inhibition; induction of MSH2-dependent cell death (MSH2): capable of inducing cell death in an MSH2-dependent manner
COC(=O)[C@H]1[C@H]2C[C@@H]3c4[nH]c5cc(OC)ccc5c4CCN3C[C@H]2C[C@@H](OC(=O)c2cc(OC)c(OC)c(OC)c2)[C@@H]1OC [reserpine]				induction of MSH2-dependent cell death (MSH2): capable of inducing cell death in an MSH2-dependent manner
